According to US20170029355A1, “LABILE ESTERS OF AGROCHEMICALS FOR CONTROLLED RELEASE AND REDUCTION OF OFF-SITE MOVEMENT” (Monsanto Technology LLC, priority 2011, published 2017):
Where two headings read alike, the source gives them in different places.

Assays:
soybeans = test: Humidome volatility injury, ester 32a emulsifiable concentrate (Example 32); settings: humidome, dicamba 0.6% and glyphosate 1.2% acid equivalent, 14 days after treatment
Excerpt: […] The mixtures were sprayed at a 10 gallon per acre (93.5 liters per hectare) rate on soil in a plastic container (“humidome”) with a transparent lid. One soil container was sprayed with water as a control. Four glyphosate-tolerant, dicamba-sensitive soy plants between V2 and V3 stage were immediately placed on the sprayed soil and the domes attached to the trays with binder clips. The soy plants were in pots placed directly on the soil but with aluminum foil wrapped around the bottom to prevent uptake of dicamba or dicamba esters through the roots.
The closed containers were held for 24 hours in a growth chamber which was maintained at 35° C. with 40% relative humidity. […] At this time plant injury and growth stage were assessed compared to the control treated with water only.

[1] = In vitro photo-release and hydrolytic release of dicamba in an aqueous medium (Example 35); format: physicochemical; settings: 0.01 mM ester, 35° C.
Experimental: This Example describes the determination of photo-lability and hydrolytic lability of dicamba esters in an aqueous medium. 1 mM solutions of the esters were prepared in acetonitrile (or […] solutions of dicamba diesters). The solutions were then diluted with deionized water to a concentration of 0.01 mM (or 0.005 mM for diesters). The solutions were then transferred to quartz tubes and amber bottles and held in a growth chamber by the procedure of Example 26. A 14-hour day was generally used at a constant temperature of 35° C. Hydrolytic activity was assessed by measuring the increase in dicamba concentration after day zero in the amber (dark) bottles. […] Photolysis manifested itself as increased conversion in the quartz tubes compared to the dark control.

velvetleaf [2] = test: Greenhouse post-emergent control of velvetleaf by emulsifiable concentrates (Example 37); format: in vivo; settings: for pest or weed control at 140 g/ha / pest or weed control at 280 g/ha / pest or weed control at 420 g/ha / pest or weed control at 560 g/ha: Abutilon theophrasti, post-emergence, 504 h; for pest or weed control at 140 g/ha: read-out: % Control of velvetleaf, 140 g/ha; for pest or weed control at 280 g/ha: read-out: % Control of velvetleaf, 280 g/ha; for pest or weed control at 420 g/ha: read-out: % Control of velvetleaf, 420 g/ha; for pest or weed control at 560 g/ha: read-out: % Control of velvetleaf, 560 g/ha
How it was run: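 Photo-labile dicamba ester emulsifiable concentrates sprayed post-emergence in the greenhouse on velvetleaf 10-15 cm tall at 140, 280, 420 and 560 g dicamba equivalent per hectare. Percent control scored three weeks after treatment.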

hemp sesbania = test: Field testing of emulsifiable concentrates, post-emergent control (Example 40); format: in vivo; settings: for % control 19 days after treatment, 280 g/ha, Hemp sesbania: 280 g dicamba acid equivalent per hectare; for % control 19 days after treatment, 560 g/ha, Hemp sesbania: 560 g dicamba acid equivalent per hectare
Experimental: (§1) Three dicamba esters, 30a, 32a, and 36a, were formulated as emulsifiable concentrates for field testing. All surfactants are commercial materials from Stepan.
(§2) The formulations were tested in the field. Locations and timing were identical for the three esters, but differed slightly for the diglycolamine control. The esters were compared to the diglycolamine salt of dicamba (CLARITY™) for post-emergent control of three broadleaf weeds: velvetleaf, morning glory, and hemp sesbania. Rates of 280 and 560 g dicamba acid equivalent per hectare were used.

morning glory = test: as above; format: in vivo; settings: for % control 19 days after treatment, 280 g/ha, Morning glory: 280 g dicamba acid equivalent per hectare; for % control 19 days after treatment, 560 g/ha, Morning glory: 560 g dicamba acid equivalent per hectare
Experimental: as §1, §2

velvetleaf [3] = test: as above; format: in vivo; settings: for % control 19 days after treatment, 280 g/ha, Velvetleaf: 280 g dicamba acid equivalent per hectare; for % control 19 days after treatment, 560 g/ha, Velvetleaf: 560 g dicamba acid equivalent per hectare
Experimental: as §1, §2

[4] = system: three broadleaf weeds: velvetleaf, morning glory, and hemp sesbania; test: Field testing of Example 40, overall post-emergent activity in words; format: in vivo; settings: 280 and 560 g dicamba acid equivalent per hectare
Experimental: as §1, §2

broadleaf weeds = test: Control of broadleaf weeds by ester concentrates (statements of the description); format: in vivo; settings: emulsifiable and suspension concentrates; Sesbania macrocarpa, morning glory, velvetleaf, Palmer amaranth, fat hen, sicklepod

COc1c(Cl)ccc(Cl)c1C(=O)Oc1ccc(=O)n(CCC(C)=O)n1 [Ester 32a]
average injury to soybeans (soybeans): 19%
Conversion to Dicamba, Dark, Day 0 ([1]; amber (dark) bottle): 5%
Conversion to Dicamba, Dark, Day 1 ([1]; amber (dark) bottle, Day 1): 12%
Conversion to Dicamba, Dark, Day 2 ([1]; amber (dark) bottle, Day 2): 14%
Conversion to Dicamba, Dark, Day 3 ([1]; amber (dark) bottle): 17%
Conversion to Dicamba, Dark, Day 4 ([1]; amber (dark) bottle, Day 4): 22%
Conversion to Dicamba, Dark, Day 7 ([1]; amber (dark) bottle, Day 7): 34%
Conversion to Dicamba, Dark, Day 14 ([1]; amber (dark) bottle): 41%
Conversion to Dicamba, Dark, Day 21 ([1]; amber (dark) bottle): 55%
Conversion to Dicamba, Dark, Day 28 ([1]; amber (dark) bottle): 70%
Conversion to Dicamba, Light, Day 0 ([1]; quartz tube, 14-hour day): 5%
Conversion to Dicamba, Light, Day 1 ([1]; quartz tube, 14-hour day, Day 1): 14%
Conversion to Dicamba, Light, Day 2 ([1]; quartz tube, 14-hour day, Day 2): 16%
Conversion to Dicamba, Light, Day 3 ([1]; quartz tube, 14-hour day): 18%
Conversion to Dicamba, Light, Day 4 ([1]; quartz tube, 14-hour day, Day 4): 22%
Conversion to Dicamba, Light, Day 7 ([1]; quartz tube, 14-hour day, Day 7): 27%
Conversion to Dicamba, Light, Day 14 ([1]; quartz tube, 14-hour day): 44%
Conversion to Dicamba, Light, Day 21 ([1]; quartz tube, 14-hour day): 50%
Conversion to Dicamba, Light, Day 28 ([1]; quartz tube, 14-hour day): 59%
pest or weed control at 140 g/ha (velvetleaf [2]): 12.5%
pest or weed control at 280 g/ha (velvetleaf [2]): 19.2%
pest or weed control at 420 g/ha (velvetleaf [2]): 33.3%
pest or weed control at 560 g/ha (velvetleaf [2]): 37.5%
post-emergent efficacy on velvetleaf compared with the salt, in words (velvetleaf [2]; greenhouse, emulsifiable concentrates): reduced post-emergent efficacy
% control 19 days after treatment, 280 g/ha, Hemp sesbania (hemp sesbania): 76 ± 5%
% control 19 days after treatment, 560 g/ha, Hemp sesbania (hemp sesbania): 91 ± 8%
% control 19 days after treatment, 280 g/ha, Morning glory (morning glory): 70 ± 24%
% control 19 days after treatment, 560 g/ha, Morning glory (morning glory): 87 ± 10%
% control 19 days after treatment, 280 g/ha, Velvetleaf (velvetleaf [3]): 59 ± 28%
% control 19 days after treatment, 560 g/ha, Velvetleaf (velvetleaf [3]): 68 ± 26%
post-emergent activity compared with the dicamba salt, in words [4]: intermediate activity
control of a number of broadleaf weeds in field testing, in words (broadleaf weeds): proven effective

COc1ccc(OC(=O)c2c(Cl)ccc(Cl)c2OC)cc1 [Ester 30a, 4-methoxyphenyl ester of dicamba]
Conversion to Dicamba, Dark, Day 0 ([1]; amber (dark) bottle): 6%
Conversion to Dicamba, Dark, Day 3 ([1]; amber (dark) bottle): 5%
Conversion to Dicamba, Dark, Day 14 ([1]; amber (dark) bottle): 17%
Conversion to Dicamba, Dark, Day 21 ([1]; amber (dark) bottle): 17%
Conversion to Dicamba, Dark, Day 28 ([1]; amber (dark) bottle): 19%
Conversion to Dicamba, Light, Day 0 ([1]; quartz tube, 14-hour day): 6%
Conversion to Dicamba, Light, Day 3 ([1]; quartz tube, 14-hour day): 14%
Conversion to Dicamba, Light, Day 14 ([1]; quartz tube, 14-hour day): 23%
Conversion to Dicamba, Light, Day 21 ([1]; quartz tube, 14-hour day): 29%
Conversion to Dicamba, Light, Day 28 ([1]; quartz tube, 14-hour day): 36%
pest or weed control at 140 g/ha (velvetleaf [2]; greenhouse, 140 g/ha, Example 37): 19.2%
pest or weed control at 280 g/ha (velvetleaf [2]; greenhouse, 280 g/ha, Example 37): 12.5%
pest or weed control at 420 g/ha (velvetleaf [2]; greenhouse, 420 g/ha, Example 37): 18.3%
pest or weed control at 560 g/ha (velvetleaf [2]; greenhouse, 560 g/ha, Example 37): 15%
% control 19 days after treatment, 280 g/ha, Hemp sesbania (hemp sesbania): 50 ± 20%
% control 19 days after treatment, 560 g/ha, Hemp sesbania (hemp sesbania): 67 ± 13%
% control 19 days after treatment, 280 g/ha, Morning glory (morning glory): 79 ± 7%
% control 19 days after treatment, 560 g/ha, Morning glory (morning glory): 78 ± 10%
% control 19 days after treatment, 280 g/ha, Velvetleaf (velvetleaf [3]): 56 ± 25%
% control 19 days after treatment, 560 g/ha, Velvetleaf (velvetleaf [3]): 65 ± 25%
post-emergent activity compared with the dicamba salt, in words [4]: less efficacious
control of a number of broadleaf weeds in field testing, in words (broadleaf weeds): proven effective
